Measurements published in patent US8524729B2, “Cinnamoyl derivatives and use thereof” (Sumitomo Chemical Company, Limited, priority 2003, dated 2013).

experiment: Inhibition of the ability of TGF-β to promote transcription of a Type I collagen gene, COL-Luc luciferase reporter in normal human fetal skin fibroblasts; format: cell-based; settings: final concentration 1 μM; TGF-β added after one hour; 40 hours; normal human fetal skin fibroblast transfected with COL-Luc and pCMV-β-gal; read-out: Inhibition percentage
Experimental: 1×10^8 cells of a normal human fetal skin fibroblast (Clontech, catalogue No. CC-2509) were cultured at 37° C. overnight under 5% CO2 atmosphere. After the cultured cells were washed with a sodium phosphate buffer (hereinafter, referred to as PBS) twice, 3 ml of PBS was added thereto and the cells were scraped away the wall of a vessel using a cell scraper (Nalgen, catalogue No. 179693). The scraped cells were collected by centrifugation (1,500 rpm, 4° C., 15 min), and these were suspended in 20 ml of PBS and centrifuged again. To the resulting precipitates were added 11 ml of Solution 2 and 4.8 μl of pronase of DNA Extraction Kit (Stratagene, catalogue No. 200600). After shaken at 60° C. for 1 hour, the resulting mixture was allowed to stand in ice for 10 minutes. Then, 4 ml of Solution 3 of the kit was added to the mixture. After mixed, the mixture was allowed to stand in ice for 5 minutes and then centrifuged (3,000 rpm, 4° C., 15 min) to recover a supernatant. To the recovered supernatant was added 2 μl of RNase per 1 ml of the supernatant and the mixture was allowed to stand at 37° C. for 15 minutes. To the mixture was added 2-fold volume of ethanol. After mixed, a white thread-like substance (genomic DNA) appeared and the substance was recovered. The recovered genomic DNA was washed with 70% ethanol and then air-dried. The air-dried genomic DNA was dissolved in 500 μl of 10 mM Tris-HCl, 1 mM EDTA (pH 8.0) (hereinafter, referred to as TE).
The resulting genomic DNA solution (the amount equivalent to 1 μg of genomic DNA), each 1 μl ([…]) of an oligonucleotide consisting of the nucleotide sequence represented by SEQ ID No:1 and an oligonucleotide consisting of the nucleotide sequence represented by SEQ ID No: 2, 29 μL of distilled water, 5 μl of the buffer attached to TaKaRa LA Taq (TAKARA SHUZO, catalogue No. RR002A), 5 μL of a Mg^2+ solution, 5 μL of a dNTP mixture and 0.5 μl of TaKaRa LA Taq (TAKARA SHUZO, catalogue No. RR002A) were mixed. After the resulting mixed solution was incubated at 94° C. for 5 minutes, the mixed solution was subjected to 30 cycles, in which one cycle consists of incubation at 94° C. for 1 minute, at 60° C. for 1 minute and then at 72° C. for 1 minute. The mixed solution was electrophoresed on a 2% agarose gel to recover about 0.5 kb of a DNA. The recovered DNA was treated with phenol/chloroform and then precipitated with ethanol to recover the DNA. The resulting DNA was dissolved in ultrapure water. To this solution were added 2.5 μl of NheI and 2.5 μl of HindIII, and then incubated at 37° C. for 3 hours. Then, the solution was electrophoresed on a 2% agarose gel to recover […] of a DNA. The recovered DNA was precipitated with ethanol to recover again the DNA (hereinafter, referred to as the collagen promoter DNA). […]

Row | Structure (SMILES) | inhibition at 1 µM [%]
1 | COc1c(C(=O)C=Cc2ccc(OC(F)(F)F)c(Cl)c2)c(=O)oc2ccccc12 [Compound No. (2c-17), 4-methoxy-3-[3-[3-chloro-4-(trifluoromethoxy)phenyl]-1-oxo-2-propenyl]-2H-1-benzopyran-2-one] | ≥ 70
2 | COC1=C(C(=O)C=Cc2ccc(OC(F)(F)F)c(Cl)c2)COC(C)=C1 [Compound No. (2a-17), 4-methoxy-3-[3-[3-chloro-4-(trifluoromethoxy)phenyl]-1-oxo-2-propenyl]-6-methyl-2H-pyran] | ≥ 70
3 | Cc1cc(O)c(C(=O)C=Cc2ccc(OC(F)(F)F)c(Cl)c2)c(=O)[nH]1 [Compound No. (3a-32), 4-hydroxy-3-[3-[3-chloro-4-(trifluoromethoxy)phenyl]-1-oxo-2-propenyl]-6-methyl-2(1H)-pyridinone] | ≥ 70
4 | O=C(C=Cc1ccc(OC(F)(F)F)c(Cl)c1)c1c(O)c2ccccc2[nH]c1=O [Compound No. (3c-32), 4-hydroxy-3-[3-[3-chloro-4-(trifluoromethoxy)phenyl]-1-oxo-2-propenyl]-2(1H)-quinolinone] | ≥ 70
